Patent US11147801B2, “Methods of use for trisubstituted benzotriazole derivatives as dihydroorotate oxygenase inhibitors” (Aurigene Discovery Technologies Limited, priority 2017, dated 2021)

What was measured:
AML-193 = assay: Heme line growth assay (Cell-Titer Glo), 4-day and extended 7-day; assay type: cell-based, human; design: key to Sensitivity 7-day: *: insensitive; **: intermediate; ***: sensitive
Protocol: (§1) A follow-up screen was performed on an expanded panel of cell lines of heme lineage in a 4-day growth assay. Growth was assessed by Cell-Titer Glo measurements on day 0 and day 4.
(§2) Compound 1, of which diffuse large B cell lymphoma (DLBCL) lines were particularly sensitive (8/11 or 73%). A subset of the heme lines that were of intermediate sensitivity (defined as >50% and <75% growth rate inhibition) or insensitive (defined as <50% growth rate inhibition) to compound 1 in this follow-up screen were subjected to extended growth assays to evaluate if increased treatment time modulated their sensitivity profile. Specifically, these heme lines were pretreated with Compound 1 for three days at the indicated concentrations and then re-plated for a standard 4-day growth assay in fresh media/drug.

F36P = assay: as above; assay type: cell-based, human; design: key to Sensitivity 7-day: *: insensitive; **: intermediate; ***: sensitive
Protocol: as §1, §2

HEL = assay: as above; assay type: cell-based, human; design: key to Sensitivity 7-day: *: insensitive; **: intermediate; ***: sensitive
Protocol: as §1, §2

HuNS1 = assay: as above; assay type: cell-based, human; design: key to Sensitivity 7-day: *: insensitive; **: intermediate; ***: sensitive
Protocol: as §1, §2

KG-1 = assay: as above; assay type: cell-based, human; design: key to Sensitivity 7-day: *: insensitive; **: intermediate; ***: sensitive
Protocol: as §1, §2

KMS12BM = assay: as above; assay type: cell-based, human; design: key to Sensitivity 7-day: *: insensitive; **: intermediate; ***: sensitive
Protocol: as §1, §2

LP1 = assay: as above; assay type: cell-based, human; design: key to Sensitivity 7-day: *: insensitive; **: intermediate; ***: sensitive
Protocol: as §1, §2

SUDHL4 = assay: as above; assay type: cell-based, human; design: key to Sensitivity 7-day: *: insensitive; **: intermediate; ***: sensitive
Protocol: as §1, §2

TF1 = assay: as above; assay type: cell-based, human; design: key to Sensitivity 7-day: *: insensitive; **: intermediate; ***: sensitive
Protocol: as §1, §2

THP-1 = assay: as above; assay type: cell-based, human; design: key to Sensitivity 7-day: *: insensitive; **: intermediate; ***: sensitive
Protocol: as §1, §2

U266B1 = assay: as above; assay type: cell-based, human; design: key to Sensitivity 7-day: *: insensitive; **: intermediate; ***: sensitive
Protocol: as §1, §2

GDM-1 = assay: as above; assay type: cell-based, human
Protocol: as §1, §2

Kasumi-3 = assay: as above; assay type: cell-based, human
Protocol: as §1, §2

Kasumi-6 = assay: as above; assay type: cell-based, human
Protocol: as §1, §2

SKNO-1 = assay: as above; assay type: cell-based, human
Protocol: as §1, §2

[1] = test system: cell lines of heme lineage; assay: Follow-up screen on expanded panel of cell lines of heme lineage, 4-day growth assay; assay type: cell-based, human
Protocol: as §1, §2

MOLM-13 tumors = assay: MOLM-13 acute myeloid leukemia xenograft model; assay type: in vivo
Protocol: In vivo efficacy studies with Compound 1 were performed to assess the in vitro to in vivo translation of effects on blockade of DHODH and tumor cell growth inhibition. 1×10^6 MOLM-13 cells were implanted subcutaneously into CB17 SCID mice. Mice (n=15/group) were treated with vehicle or Compound 1 at 100 mg/kg BID PO once tumors reached an average of ˜150 mm^3. At end of the study, tissues were collected at the indicated timepoints post-last dose for pharmacokinetic (PK) and pathway biomarker analyses.

AML_2 tumor = assay: Patient-derived AML xenograft model AML_2; assay type: in vivo, CB17 SCID mice; settings: 100 mg/kg BID PO
Protocol: A screen was next performed using a small number of mice/group to assess efficacy of Compound 1 in AML and DLBCL patient-derived xenograft models. Tumor-bearing mice (n=3/group) were treated with vehicle or Compound 1 at 100 mg/kg BID PO.

OCILY-19 tumors = assay: OCILY-19 diffuse large B-cell lymphoma xenograft model; assay type: in vivo, CB17 SCID mice
Protocol: 7×10^6 OCILY-19 cells were implanted subcutaneously into CB17 SCID mice. Mice (n=15-18/group) were treated with vehicle or Compound 1 at the indicated dose/frequency once tumors reached an average of ˜150 mm^3. Tissues were collected at the indicated timepoints post-last dose for PK and biomarker analyses.

[2] = 3 days pretreatment then 4-day growth assay
[3] = acute myeloid leukemia, 4-day growth assay

In the case of `Cc1ccccc1-c1ccc(-c2cc(C(=O)O)c3c(c2)nnn3C)cc1` [Compound 1, 1-methyl-5-(2′-methyl-[1,1′-biphenyl]-4-yl)-1H-benzo[d][1,2,3]triazole-7-carboxylic Acid], the “Sensitivity 7-day” value (AML-193; AML-193, 3 days pretreatment then 4-day growth assay) is reported as “***”, the “Sensitivity 4-day” value (AML-193; AML-193, acute myeloid leukemia, 4-day growth assay) is reported as “** (intermediate)” and the “Sensitivity 7-day” value (F36P; [2]) is reported as “***”. For the same compound, the “Sensitivity 4-day” value (F36P; [3]) was “** (intermediate)”, the “Sensitivity 7-day” value (HEL; [2]) was “***” and the “Sensitivity 4-day” value (HEL; [3]) was “** (intermediate)”. The “Sensitivity 7-day” value (HuNS1; HuNS1, 3 days pretreatment then 4-day growth assay) was “***”, the “Sensitivity 4-day” value (HuNS1; HuNS1, multiple myeloma, 4-day growth assay) was “* (insensitive)” and the “Sensitivity 7-day” value (KG-1; KG-1, 3 days pretreatment then 4-day growth assay) was “***”. The “Sensitivity 4-day” value (KG-1; KG-1, acute myeloid leukemia, 4-day growth assay) was “* (insensitive)”, the “Sensitivity 7-day” value (KMS12BM; [2]) was “***” and the “Sensitivity 4-day” value (KMS12BM; multiple myeloma, 4-day growth assay) was “** (intermediate)”. The “Sensitivity 7-day” value (LP1; LP1, 3 days pretreatment then 4-day growth assay) was “***”, the “Sensitivity 4-day” value (LP1; LP1, multiple myeloma, 4-day growth assay) was “* (insensitive)” and the “Sensitivity 7-day” value (SUDHL4; SUDHL4, 3 days pretreatment then 4-day growth assay) was “***”. For the same compound, the “Sensitivity 4-day” value (SUDHL4; SUDHL4, diffuse large B cell lymphoma, 4-day growth assay) was “** (intermediate)”, the “Sensitivity 7-day” value (TF1; TF1, 3 days pretreatment then 4-day growth assay) was “***” and the “Sensitivity 4-day” value (TF1; TF1, acute myeloid leukemia, 4-day growth assay) was “* (insensitive)”. The “Sensitivity 7-day” value (THP-1; THP-1, 3 days pretreatment then 4-day growth assay) was “***”, the “Sensitivity 4-day” value (THP-1; THP-1, acute myeloid leukemia, 4-day growth assay) was “** (intermediate)” and the “Sensitivity 7-day” value (U266B1; U266B1, 3 days pretreatment then 4-day growth assay) was “***”. The “Sensitivity 4-day” value (U266B1; U266B1, multiple myeloma, 4-day growth assay) was “* (insensitive)”, the “Sensitivity 7-day” value (GDM-1; GDM-1, 3 days pretreatment then 4-day growth assay) was “** (intermediate)” and the “Sensitivity 4-day” value (GDM-1; GDM-1, acute myeloid leukemia, 4-day growth assay) was “* (insensitive)”. For the same compound, the “Sensitivity 7-day” value (Kasumi-3; Kasumi-3, 3 days pretreatment then 4-day growth assay) was “* (insensitive)”, the “Sensitivity 4-day” value (Kasumi-3; Kasumi-3, acute myeloid leukemia, 4-day growth assay) was “* (insensitive)” and the “Sensitivity 7-day” value (Kasumi-6; Kasumi-6, 3 days pretreatment then 4-day growth assay) was “* (insensitive)”. For the same compound, the “Sensitivity 4-day” value (Kasumi-6; Kasumi-6, acute myeloid leukemia, 4-day growth assay) was “* (insensitive)”, the “Sensitivity 7-day” value (SKNO-1; SKNO-1, 3 days pretreatment then 4-day growth assay) was “** (intermediate)” and the “Sensitivity 4-day” value (SKNO-1; SKNO-1, acute myeloid leukemia, 4-day growth assay) was “* (insensitive)”. The “Share of diffuse large B cell lymphoma (DLBCL) lines that were sensitive” value ([1]; 8/11 lines) was 73%, the “Share of the heme lines screened that exhibited sensitivity” value ([1]; 20/80 lines) was 25% and the Tolerability (MOLM-13 tumors; 100 mg/kg BID PO, CB17 SCID mice) was “well tolerated”. The “Tumor growth inhibition (TGI)” value (MOLM-13 tumors; 100 mg/kg BID PO, MOLM-13 xenograft, 14 days) was “near complete tumor growth inhibition”, the “Reduction of tumor uridine pools” value (MOLM-13 tumors; 100 mg/kg BID, MOLM-13 tumors, depending on the timepoint) was ~60% and the “Tumor levels of dihydroorotate (DHO)” value (MOLM-13 tumors; 100 mg/kg BID, MOLM-13 tumors, over 12 hrs after last dose, baseline BQL<120 ng/g) was “dramatic increase”. The “Pharmacokinetics profile in plasma and tumor” value (MOLM-13 tumors; 100 mg/kg BID, after last dose) was “drop in drug concentrations by 12 hrs”, the TGI (AML_2 tumor) was > 60% and the “Efficacy of dosing regimen” value (OCILY-19 tumors; 100 mg/kg BID compared to 10 and 30 mg/kg BID) was “superior efficacy”. For the same compound, the “Tumor DHO” value (OCILY-19 tumors; 100 mg/kg BID versus 10 and 30 mg/kg BID, OCILY-19 tumors) was “larger increase”, the “Total tumor uridine pools” value (OCILY-19 tumors; 100 mg/kg BID, OCILY-19 tumors) was “decrease” and the “Efficacy of dosing regimen” value (OCILY-19 tumors; 200 mg/kg QD compared to 100 mg/kg BID) was “less efficacious”. For the same compound, the “In vivo tumor growth” value (OCILY-19 tumors; OCILY-19 DLBCL xenograft, CB17 SCID mice) was “strong block in in vivo tumor growth” and the Half-life in mice (OCILY-19 tumors; mice) was “short half-life”.
